Measured values taken from patent publication US12156885B2, “Methods and compositions for treating heart conditions” (priority 2020, dated 2024).

Tests used:
[1] = Treatment of PVCs in a patient with lithium carbonate in combination with metoprolol (cardiac event monitor / EKG); format: in vivo, human; details: lithium carbonate 300 mg per day (150 mg BID) in combination with metoprolol 150 mg per day
From the text: Trial 1 was started on Aug. 23, 2019 and stopped on Jan. 1, 2020; Trial 2 was started on Jan. 12, 2020 and stopped on Apr. 21, 2020; and Trial 3 was started on May 8, 2020 and was ongoing at the time the instant application was filed.
The first trial was 109 days. The second trial was 43 days.

[2] = patient; lithium carbonate 300 mg per day (Li2CO3 150 mg BID)

O=C([O-])[O-].[Li+].[Li+] [lithium carbonate]
PVCs reduced, each of three trials ([1]; each trial, for the duration of treatment with lithium): at least 90%
PVCs reduced (reduction of PVCs) ([1]; within a few days, for the duration of lithium treatment): about 90%
lithium serum level [2]: about 0.2
